Reference: patent publication US8236761B2, “C-Met receptor regulation by angiotensin IV (AT4) receptor ligands” (Washington State University Research Foundation, priority 2006, dated 2012)
Non-standard residues stand in square brackets, D forms with d. No end group written: not given here. Nle = CCCC[C@H](N)C(=O)O

Key:
[1] = test system: B16-F10 melanoma cells; assay: In vivo pulmonary B16-F10 melanoma metastasis model; set-up: species or system C57BL/6 mice; conditions: tail vein inoculation, IP 50 μg/kg/day, fourteen days, melanin absorbance
Experimental: (FIG. 13A) C57BL/6 mice were inoculated subcutaneously with B16-F10 cells. Control or Norleual-containing slow release Elvax pellets were implanted inter-muscularly. Tumors were measured with digital calipers and tumor volumes were calculated (n=6), error bars indicate ±SD. (FIG. 13B) 400,000 B16-F10 cells, treated in suspension with either Norleual at 10^−11 M or PBS as a vehicle control, were injected into the tail vein of C57BL/6 mice. Mice received IP injections of Norleual (50 μg/kg/day) or PBS vehicle control. After fourteen days, lungs were removed and the absorbance of melanin was used to quantify metastasis; bars show (left to right) graft recipients treated with vehicle only, Norelual treated graft recipients, and ungrafted age-matched control. Error bars indicate±SEM, with n=5 and *p<0.05. (FIG. 13C) Photo of representative lungs from vehicle-only treated (controls, “Norleal −”) and Norleual treated (“Norleual +”) grafted mice.
In vivo metastasis. Six to eight month old C57BL/6 mice were injected with 400 000 B16-F10 cells in 200 μl PBS by tail vein injection. Two to three weeks later, mice were anesthetized and lungs were perfused with PBS and removed. […] The supernate was transferred to a 96 well plate and melanin absorbance at 410 nm was measured using a plate reader (Biotek Synergy2, Winooski, Vt., USA). […]

[2] = test system: human endothelial cells; assay: Proliferation and migration of human endothelial cells; type: cell-based
[3] = test system: B16-F10 murine melanoma cells; assay: B16-F10 scratch wound closure assay; type: cell-based; conditions: six hours after scratch
Experimental: Scratch Assay. Confluent B16-F10 cells in 48 well plates were scratched with a 200 μl pipette tip. Wells were treated with vehicle, HGF, and/or Norleual. Photos were taken at various time points. Photos were graded by two investigators.
See Example 1 for Materials and Methods. Norleual was applied to HGF treated B16-F10 murine melanoma cells in a scratch wound assay. HGF accelerated the wound closure, however Norleual was able to attenuate HGF stimulated closure six hours after scratch (FIG. 11A).

Q: Which B16-F10 lung metastasis [1] does the source give for “Nle-Tyr-Leu-ψ-His-Pro-Phe ([Nle]YLHPF; also: reduced peptide bond psi(CH2NH2) between Leu and His) [Norleual]” here?
A: Its B16-F10 lung metastasis is “dramatically inhibited”.

Q: And the “Proliferation and migration of human endothelial cells” value [2]?
A: The value was “inhibited”.

Q: What about the “HGF stimulated scratch wound closure” value [3] of the same substance?
A: Its value is “attenuate”.
